Here are results for one compound from US20060211073A1, “Assay for B-Raf activity based on intrinsic MEK ATPase activity” (priority 2005, published 2006).

This experiment concerns the target T1, phosphoMEK (activated MEK-1) (Homo sapiens, UniProt Q02750).
T1 construct: purchased Upstate (Waltham, Mass.) #14-429, lot #26232U
As to the kind of experiment: ATPase activity of commercially acquired phosphoMEK in the absence of B-Raf. Conditions: data not shown. The experiment is classed as biochemical.

Where only a bound is given, the exact number is not on record here.

T1 sequence (Q02750 whole entry): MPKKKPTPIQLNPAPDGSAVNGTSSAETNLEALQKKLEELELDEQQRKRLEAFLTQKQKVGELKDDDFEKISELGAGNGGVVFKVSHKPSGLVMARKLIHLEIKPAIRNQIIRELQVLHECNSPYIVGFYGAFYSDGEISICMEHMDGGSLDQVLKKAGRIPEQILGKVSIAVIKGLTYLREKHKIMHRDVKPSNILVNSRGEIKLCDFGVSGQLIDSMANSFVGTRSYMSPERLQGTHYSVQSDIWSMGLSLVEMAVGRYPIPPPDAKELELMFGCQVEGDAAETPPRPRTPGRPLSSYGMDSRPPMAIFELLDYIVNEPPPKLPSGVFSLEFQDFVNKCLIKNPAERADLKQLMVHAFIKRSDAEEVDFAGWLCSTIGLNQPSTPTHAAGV

What is called IC50 is the midpoint of a concentration-inhibition curve. `CN(C)CCOc1ccc(-c2nc(-c3ccncc3)c(-c3ccc4c(c3)CC/C4=N\O)[nH]2)cc1` [SB-590885] gave an IC50 above 10 µM.
